{"source": "patent US20020025347A1", "about": "“Treatment of diabetic nephropathy and microalbuminuria” (Shiva Biomedical, LLC, priority 1999, published 2002)", "key": {"[1]": {"test_system": "fibronectin", "test": "High glucose-induced fibronectin synthesis and secretion from mesangial cells (Western blot)", "format": "cell-based, Murine", "details": "MES-13 cells, 30 mM glucose, 50 μg/mL", "experimental": "(§1) Murine renal mesangial cells were used in these experiments. The mesangial cells (MES-13) were cloned from transgenic mice. The twenty-fifth passage of the originally plated cells was used in the experiments. MES-13 cells were grown in Dulbecco's Modified Eagle's Medium (DMEM) containing 15% fetal bovine serum (FBS), 1% streptomycin-penicillin mixture, fungizone 0.2 μg/mL, 44 mM NaHCO3 and 14 mM HEPES at 37° C. in a humid atmosphere containing 5% CO2 and 95% air. Subcultures were seeded from confluent stock cultures by trypsinization in Hanks balanced salt solution containing 0.5 mM EDTA and 0.025% trypsin and grown in DMEM containing 15% FBS for 24 hr to near confluence (80%). Near confluent cells were incubated with serum-free DMEM to arrest cell growth and synchronize cell cultures. After 24 hr, the media was changed to serum-free DMEM containing 5.5 mM (normal) or 30 mM (high) glucose and cells cultured for 5 days. Cells were then incubated with a salt of lithospermic acid at 25 μg/mL or 50 μg/mL for 24 hours. […] Protein concentration in cell lysate and culture media samples was determined by the method of Lowry with BSA as a standard (Lowry, O. H., et al., J. Biol. Chem. 193:265-275 (1951)). […] After washing, the antigen-antibody complexes were detected by enhanced chemiluminesence (Amersham International, England) and quantitated densitometry."}, "[2]": {"test_system": "MEK2", "test": "High glucose-induced phosphorylation of MEK in mesangial cells (Western blot)", "format": "cell-based, Murine", "details": "MES-13 cells", "experimental": "as §1"}, "[3]": {"test_system": "ERK2", "test": "High glucose-induced phosphorylation of ERK in mesangial cells (Western blot)", "format": "cell-based, Murine", "details": "MES-13 cells, 30 mM glucose, 50 μg/mL", "experimental": "as §1"}, "[4]": {"test_system": "TGF-β1", "test": "High glucose-induced TGF-β1 secretion from mesangial cells (Western blot)", "format": "cell-based, Murine", "details": "MES-13 cells, 30 mM glucose, 25 or 50 μg/mL for 24 hours", "experimental": "as §1"}, "[5]": {"test_system": "STZ-induced diabetic rats", "test": "Treatment of STZ-induced diabetic rats with a salt of lithospermic acid", "format": "in vivo, Sprague-Dawley rats", "experimental": "Sprague-Dawley rats (3-4 months of age, 250-300 g) were housed individually in sterile microisolator cages in a Specific Pathogen Free animal care facility. Rats were fed standard Rat chow and water was available ad libitum. Animals were maintained in temperature (25° C.) and humidity (40%) controlled rooms with a 12-h light/12 h dark cycle. Rats were randomly assigned to three experimental groups: Group I, nondiabetic control (n=10), Group II, untreated diabetic (n=10); and Group III, salt of lithospermic acid-treated diabetic (n=10). Insulin dependent diabetes was induced by a single intravenous injection of freshly prepared streptozotocin (STZ) (50 mg/kg in 0.1 M citrate buffer, pH 4.5) (Schmidt, R. E., et al., Diabetes 45(3):284-290 (1996)). A rat was considered diabetic when the nonfasting plasma glucose level was greater than about 17 mmol/L, 3 days following injection of STZ. Eight weeks following the administration of STZ, animals were treated with a salt of lithospermic acid by intramuscularly injections once daily (20 mg salt of lithospermic acid/kg body weight) for 8 weeks. Body weights were recorded weekly before and throughout the treatment period. Twenty-four hour urine and glycosylated hemoglobin levels were determined at 8, 12 and 16 weeks after injection of STZ. Urine samples were centrifuged (3000 rpm for 10 min) and the supernatant analyzed for creatinine and protein levels using standard techniques (Matsuo, Y., et al., Pharmacology 50:1-8 (1995))."}, "[6]": {"test_system": "protein kinase C (PKC)", "test": "High glucose-induced protein kinase C activity in mesangial cells", "format": "cell-based, Murine", "details": "MES-13 cells, 30 mM glucose 5 days, then 25 or 50 μg/mL for 24 hours", "experimental": "Murine renal mesangial cells were used in these experiments. The mesangial cells (MES-13) were cloned from transgenic mice. The twenty-fifth passage of the originally plated cells was used in the experiments. MES-13 cells were grown in Dulbecco's Modified Eagle's Medium (DMEM) containing 15% fetal bovine serum (FBS), 1% streptomycin-penicillin mixture, fungizone 0.2 μg/mL, 44 mM NaHCO3 and 14 mM HEPES at 37° C. in a humid atmosphere containing 5% CO2 and 95% air. Subcultures were seeded from confluent stock cultures by trypsinization in Hanks balanced salt solution containing 0.5 mM EDTA and 0.025% trypsin and grown in DMEM containing 15% FBS for 24 hr to near confluence (80%). Near confluent cells were incubated with serum-free DMEM to arrest cell growth and synchronize cell cultures. After 24 hr, the media was changed to serum-free DMEM containing 5.5 mM (normal) or 30 mM (high) glucose and cells cultured for 5 days. […] The amount of PKC in lysates of cells cultured in presence of high glucose (30 mM) and normal glucose (control, 5.5 mM) was determined using a commercially available kit (Upstate Biotechnology, Lake Placid N.Y.). […] Assay squares were placed into vials and radioactivity determined by scintillation counting. PKC activity was expressed as pmol/min/protein. Significant differences between group means were determined using the unpaired or paired Student's t-test."}, "[7]": {"details": "treated diabetic rats, 20 mg/kg intramuscularly once daily for 8 weeks"}}, "note": "Entries after “also recorded” stand apart in the source; their conditions may differ. Where a name gives a salt, the structure may show the parent alone.", "data": [{"smiles": "O=C(/C=C/c1ccc(O)c2c1[C@H](C(=O)O)[C@@H](c1ccc(O)c(O)c1)O2)O[C@H](Cc1ccc(O)c(O)c1)C(=O)O", "note": "[salt of lithospermic acid]", "values": [{"measurement": "fibronectin levels in high glucose (FIG. 4)", "setting": "[1]", "result": "decreased fibronectin levels to about that of control levels"}, {"measurement": "phosphorylated MEK2 (MEK P) in high glucose (FIG. 7)", "setting": "[2]; high glucose, 50 μg/mL", "result": "approached control levels"}, {"measurement": "total amount of MEK2 (MEK2-T, phosphorylated and nonphosphorylated) (FIG. 8)", "setting": "[2]; regardless of glucose concentration or treatment", "result": "remained constant"}, {"measurement": "phosphorylated ERK2 in high glucose (FIG. 5)", "setting": "[3]", "result": "decrease in phosphorylated ERK2 to about control levels"}, {"measurement": "TGF-β1 secretion in high glucose (FIG. 3)", "setting": "[4]", "result": "decreased high glucose-induced TGF-β1 secretion"}, {"measurement": "effect on blood glucose levels in diabetic rats", "setting": "[5]; 20 mg/kg intramuscularly once daily for 8 weeks", "result": "did not significantly lower blood glucose levels"}, {"measurement": "urinary protein levels (FIG. 1)", "setting": "[5]; 20 mg/kg intramuscularly once daily for 8 weeks, started 8 weeks after STZ, compared to untreated diabetic and nondiabetic control rats", "result": "significantly (p<0.001) lowered urinary protein levels; also recorded: approached the levels observed in control, nondiabetic rats"}, {"measurement": "HCT", "setting": "[5]; treated diabetic rats", "result": "37.44 ± 3.13", "unit": "%"}, {"measurement": "Hb", "setting": "[5]; treated diabetic rats", "result": "14.44 ± 0.87", "unit": "g/dL"}, {"measurement": "MCH", "setting": "[5]; treated diabetic rats", "result": "21.13 ± 0.69", "unit": "pg"}, {"measurement": "WBC", "setting": "[5]; treated diabetic rats", "result": "11.95 ± 4.66 × 10(3)"}, {"measurement": "Albumin", "setting": "[5]; [7]", "result": "1.75 ± 0.31", "unit": "g/dL"}, {"measurement": "BUN", "setting": "[5]; [7]", "result": "28.1 ± 5.32", "unit": "mg/dL"}, {"measurement": "Bilirubin", "setting": "[5]; [7]", "result": "1.14 ± 1.10", "unit": "mg/dL"}, {"measurement": "Cholesterol", "setting": "[5]; [7]", "result": "47 ± 7.35", "unit": "mg/dL"}, {"measurement": "Cl", "setting": "[5]; [7]", "result": "101.5 ± 2.65", "unit": "mmol/L"}, {"measurement": "Creatinine", "setting": "[5]; [7]", "result": "0.6 ± 0.12", "unit": "mg/dL"}, {"measurement": "D. Bil", "setting": "[5]; [7]", "result": "0.67 ± 0.7", "unit": "mg/dL"}, {"measurement": "GOT", "setting": "[5]; [7]", "result": "239 ± 157", "unit": "U/L"}, {"measurement": "GPT", "setting": "[5]; [7]", "result": "102.75 ± 73.74", "unit": "U/L"}, {"measurement": "Glucose", "setting": "[5]; [7]", "result": "508.5 ± 160.4", "unit": "mg/dL"}, {"measurement": "K", "setting": "[5]; [7]", "result": "19.53 ± 12.8", "unit": "mmol/L"}, {"measurement": "Na", "setting": "[5]; [7]", "result": "130.3 ± 6.24", "unit": "mmol/L"}, {"measurement": "Serum Protein", "setting": "[5]; [7]", "result": "6.28 ± 0.54", "unit": "g/dL"}, {"measurement": "Uric Acid", "setting": "[5]; [7]", "result": "1.6 ± 1.07", "unit": "mg/dL"}, {"measurement": "r-GTP", "setting": "[5]; [7]", "result": "2.75 ± 2.75", "unit": "U/L"}, {"measurement": "HbAlc", "setting": "[5]; treated diabetic rats, p < 0.01 vs. control", "result": "8.59 ± 1.59", "unit": "%"}, {"measurement": "PKC activity in high glucose (FIG. 2)", "setting": "[6]", "result": "decreased PKC activity"}]}]}
